tested on: Human prostate cancer cell lines (PC-3 cells); assay: Measurement of cell death-inducing activity (Test Example 1); format: cell-based; settings: PC-3, 48 h, 48 hours after addition, tested at 10, 1, 0.1, 0.025 and 0.00625 μmol/L, qualitative evaluation of 10 fields, read-out: Concentration showing the cell death-inducing activity (cell death-inducing rate not less than 40%)
Protocol: The cell death-inducing activity of the compound represented by the formula (1) or the salt thereof was measured as follows.
Human prostate cancer cell lines (PC-3 cells) were seeded to 6-well plates at 1×10^5 cells/2 mL/well, and cultured in the presence of 5% CO2 at 37° C. for 48 hours. Thereafter, each compound was added thereto so as to provide 10, 1, 0.1, 0.025 and 0.00625 μmol/L. As a control, DMSO was added. After the addition, the cells were continuously cultured for 48 hours. […] When the cell death-inducing rate was not less than 40%, the compound was judged to have the cell death-inducing activity.

`Cc1nc(-c2ccc(F)cc2Cl)sc1NC(=O)OCc1ccc2nn(C)cc2c1` [Example 9-148] and `Cc1cc(F)ccc1-c1nc(C)c(NC(=O)OCc2ccc3nn(C)cc3c2)s1` [Example 9-149] are the same in minimal effective concentration: 1 µM for the first, 1 µM for the second.

Going from `Cc1cc(Cl)ccc1-c1nc(C)c(NC(=O)OCc2ccc3nn(C)cc3c2)s1` [Example 9-150] to `CCn1cc2cc(COC(=O)Nc3sc(-c4ccc(C)cc4C)nc3C)ccc2n1` [Example 9-157], the minimal effective concentration rises from 0.025 µM to 0.1 µM (4-fold).

First: CCc1ccccc1-c1nc(C)c(NC(=O)OCc2ccc3nn(CC)cc3c2)s1 [Example 9-151]
Second: CCn1cc2cc(COC(=O)Nc3sc(-c4ccccc4OC)nc3C)ccc2n1 [Example 9-152]
The minimal effective concentration of the first is 10-fold higher: 1 µM for the first, 0.1 µM for the second.

`CCn1cc2cc(COC(=O)Nc3sc(-c4ccc(F)cc4OC)nc3C)ccc2n1` [Example 9-153] and `CCn1cc2cc(COC(=O)Nc3sc(-c4ccc(Cl)cc4OC)nc3C)ccc2n1` [Example 9-154] are the same in minimal effective concentration: 0.025 µM for the first, 0.025 µM for the second.

Compared with `CCn1cc2cc(COC(=O)Nc3sc(-c4ccc(OC)cc4OC)nc3C)ccc2n1` [Example 9-156], `CCn1cc2cc(COC(=O)Nc3sc(-c4ccc(F)cc4C)nc3C)ccc2n1` [Example 9-158] is 10-fold higher in minimal effective concentration: 0.1 µM for the first, 1 µM for the second.

`CCc1nc(-c2ccc(Cl)cc2OC)sc1NC(=O)OCc1ccc2c(c1)nnn2CC` [Example 9-160] and `CCc1nc(-c2ccc(Cl)cc2OC)sc1NC(=O)OCc1ccc2c(c1)ncn2CC` [Example 9-164] are the same in minimal effective concentration: 0.025 µM for the first, 0.025 µM for the second.

First: CCc1nc(-c2ccccc2OC)sc1NC(=O)OCc1ccc2c(c1)ncn2C [Example 9-161]
Second: CCc1nc(-c2ccccc2OC)sc1NC(=O)OCc1ccc2c(c1)ncn2CC [Example 9-162]
The minimal effective concentration of the first is 4-fold lower: 0.025 µM for the first, 0.1 µM for the second.

`CCc1nc(-c2ccc(F)cc2C)sc1NC(=O)OCc1ccc2c(c1)ncn2C` [Example 9-163] and `CCc1nc(-c2ccc(C)cc2C)sc1NC(=O)OCc1ccc2c(c1)ncn2C` [Example 9-182] are the same in minimal effective concentration: 0.025 µM for the first, 0.025 µM for the second.

Compared with `CCc1nc(-c2ccc(C)cc2OC)sc1NC(=O)OCc1ccc2c(c1)ncn2CC` [Example 9-165], `CCc1nc(-c2ccc(C)cc2C)sc1NC(=O)OCc1ccc2c(c1)ncn2CC` [Example 9-166] is 4-fold higher in minimal effective concentration: 0.00625 µM for the first, 0.025 µM for the second.

First: CCc1nc(-c2ccc(F)cc2C)sc1NC(=O)OCc1ccc2c(c1)ncn2CC [Example 9-167]
Second: CCCc1nc(-c2ccc(C)cc2C)sc1NC(=O)OCc1ccc2c(c1)ncn2C [Example 9-184]
The minimal effective concentration of the first is 40-fold lower: 0.025 µM for the first, 1 µM for the second.

Compared with `CCc1nc(-c2ccccc2OC)sc1NC(=O)OCc1ccc2c(c1)nc1n2CCOC1` [Example 9-168], `CCc1nc(-c2ccc(Cl)cc2OC)sc1NC(=O)OCc1ccc2c(c1)nc1n2CCOC1` [Example 9-169] is 16-fold lower in minimal effective concentration: 0.1 µM for the first, 0.00625 µM for the second.

`CCc1nc(-c2ccc(Cl)cc2OC)sc1NC(=O)OCc1ccc2c(c1)nc1n2CCC1` [Example 9-170] and `CCc1nc(-c2ccc(Cl)cc2OC)sc1NC(=O)OCc1ccc2c(c1)nc1n2CCCC1` [Example 9-172] are the same in minimal effective concentration: 0.025 µM for the first, 0.025 µM for the second.

`CCc1nc(-c2ccc(C)cc2OC)sc1NC(=O)OCc1ccc2c(c1)nc1n2CCC1` [Example 9-171] and `CCc1nc(-c2ccc(C)cc2OC)sc1NC(=O)OCc1ccc2c(cnn2CC)c1` [Example 9-174] are the same in minimal effective concentration: 0.025 µM for the first, 0.025 µM for the second.

`CCc1nc(-c2ccc(Cl)cc2OC)sc1NC(=O)OCc1ccc2c(cnn2CC)c1` [Example 9-173] and `CCc1nc(-c2ccc(Cl)cc2OC)sc1NC(=O)OCc1ccc2nn(CC)cc2c1` [Example 9-176] are the same in minimal effective concentration: 0.025 µM for the first, 0.025 µM for the second.

`CCc1nc(-c2ccc(C)cc2C)sc1NC(=O)OCc1ccc2c(cnn2CC)c1` [Example 9-175] and `Cc1ccc(-c2nc(C3CC3)c(NC(=O)OCc3ccc4c(c3)ncn4C)s2)c(C)c1` [Example 9-185] are the same in minimal effective concentration: 0.1 µM for the first, 0.1 µM for the second.

First: CCn1cnc2cc(COC(=O)Nc3cnc(-c4ccc(Cl)cc4OC)s3)ccc21 [Example 9-177]
Second: COc1ccccc1-c1ncc(NC(=O)OCc2ccc3c(c2)ncn3C)s1 [Example 9-178]
The minimal effective concentration of the first is 100-fold lower: 0.1 µM for the first, 10 µM for the second.

Compared with `CCn1ncc2cc(COC(=O)Nc3cnc(-c4ccccc4OC)s3)ccc21` [Example 9-179], `CCn1nc(-c2ccccc2OC)cc1NC(=O)OCc1ccc2c(c1)ncn2C` [Example 9-214] is 100-fold lower in minimal effective concentration: 10 µM for the first, 0.1 µM for the second.

Going from `CCc1nc(-c2ccc(Cl)cc2OC)sc1NC(=O)OCc1ccc2c(c1)ncn2C` [Example 9-181] to `CCCc1nc(-c2ccc(Cl)cc2OC)sc1NC(=O)OCc1ccc2c(c1)ncn2C` [Example 9-183], the minimal effective concentration rises from 0.00625 µM to 1 µM (160-fold).

`Cc1cc(Cl)ccc1-c1nc(C(F)(F)F)c(NC(=O)OCc2ccc3c(c2)ncn3C)s1` [Example 9-186] and `Cc1nc(-c2ccc(Cl)s2)sc1NC(=O)OCc1ccc2c(c1)ncn2C` [Example 9-193] are the same in minimal effective concentration: 1 µM for the first, 1 µM for the second.

Compared with `Cc1nc(-c2cccs2)sc1NC(=O)OCc1ccc2c(c1)ncn2C` [Example 9-191], `Cc1nc(-c2sccc2Cl)sc1NC(=O)OCc1ccc2c(c1)ncn2C` [Example 9-192] is 10-fold lower in minimal effective concentration: 10 µM for the first, 1 µM for the second.

`Cc1cccnc1-c1nc(C)c(NC(=O)OCc2ccc3c(c2)ncn3C)s1` [Example 9-195] and `CCn1cnc2cc(COC(=O)Nc3sc(-c4ncccc4C)nc3C)ccc21` [Example 9-196] are the same in minimal effective concentration: 10 µM for the first, 10 µM for the second.

Compared with `COc1cc(Cl)ccc1-c1nc(C)c(NC(=O)OCc2ccc3nc(C)c(C)nc3c2)s1` [Example 9-200], `COc1cc(F)ccc1-c1cc(NC(=O)OCc2ccc3c(c2)ncn3C)n(C)n1` [Example 9-217] is 40-fold lower in minimal effective concentration: 1 µM for the first, 0.025 µM for the second.

Compared with `Cn1nc(-c2ccccc2)cc1NC(=O)OCc1ccc2c(c1)ncn2C` [Example 9-204], `Cc1ccccc1-c1cc(NC(=O)OCc2ccc3c(c2)ncn3C)n(C)n1` [Example 9-205] is 10-fold lower in minimal effective concentration: 10 µM for the first, 1 µM for the second.

`Cn1nc(-c2ccc(Cl)cc2Cl)cc1NC(=O)OCc1ccc2c(c1)ncn2C` [Example 9-207] and `CCn1nc(-c2ccc(Cl)cc2Cl)cc1NC(=O)OCc1ccc2c(c1)ncn2C` [Example 9-208] are the same in minimal effective concentration: 0.025 µM for the first, 0.025 µM for the second.

Going from `CCn1cnc2cc(COC(=O)Nc3cc(-c4ccc(Cl)cc4Cl)nn3C)ccc21` [Example 9-209] to `CCn1nc(-c2ccc(Cl)cc2Cl)cc1NC(=O)OCc1ccc2c(c1)ncn2CC` [Example 9-210], the minimal effective concentration rises from 0.025 µM to 0.1 µM (4-fold).

First: CCn1nc(-c2ccc(Cl)c(Cl)c2)cc1NC(=O)OCc1ccc2c(c1)ncn2C [Example 9-211]
Second: COc1ccccc1-c1cc(NC(=O)OCc2ccc3c(c2)ncn3C)n(C)n1 [Example 9-213]
The minimal effective concentration of the first is 400-fold higher: 10 µM for the first, 0.025 µM for the second.

Going from `CCn1cnc2cc(COC(=O)Nc3cc(-c4ccccc4C(F)(F)F)nn3C)ccc21` [Example 9-212] to `CCn1cnc2cc(COC(=O)Nc3cc(-c4ccccc4OC)nn3C)ccc21` [Example 9-215], the minimal effective concentration falls from 10 µM to 0.1 µM (100-fold).

Compound `CCn1nc(-c2ccccc2OC)cc1NC(=O)OCc1ccc2c(c1)ncn2CC` [Example 9-216] has a minimal effective concentration of 1 µM.

— patent publication US9200008B2 (ASKA PHARMACEUTICAL CO., LTD., priority 2010, dated 2015)
